Source: the supplement of paper PMC10307832

How the values were obtained:
Test in all cases: relative viability (nuclei count vs DMSO), 5 days (fraction); higher = more cells survive
AZ628 + Bortezomib = compound: CC1=C(C=C(C=C1)NC(=O)C2=CC(=CC=C2)C(C)(C)C#N)NC3=CC4=C(C=C3)N=CN(C4=O)C [AZ628] + CC(C)C[C@H](NC(=O)[C@H](Cc1ccccc1)NC(=O)c1cnccn1)B(O)O [Bortezomib] (partner 0.002 µM)
How it was run: (§1)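 Five library-drug doses in √10 steps were combined with a fixed anchor-drug dose, or a single drug was given alone, by pin tool to lung cancer cell lines in 1536-well plates the day after seeding. Nuclei were stained and counted after 5 days. Relative viability is the nuclei count in treated wells over that in vehicle wells, taken as the median of duplicate plates.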

QS11 + Navitoclax = compound: C1CC2=C(C1)C=C(C=C2)OC3=NC(=C4C(=N3)N(C=N4)CC5=CC=C(C=C5)C6=CC=CC=C6)N[C@@H](CC7=CC=CC=C7)CO [QS11] + CC1(C)CCC(c2ccc(Cl)cc2)=C(CN2CCN(c3ccc(C(=O)NS(=O)(=O)c4ccc(N[C@H](CCN5CCOCC5)CSc5ccccc5)c(S(=O)(=O)C(F)(F)F)c4)cc3)CC2)C1 [Navitoclax] (partner 0.5 µM)
How it was run: as §1

AZ628 + Linsitinib = compound: CC1=C(C=C(C=C1)NC(=O)C2=CC(=CC=C2)C(C)(C)C#N)NC3=CC4=C(C=C3)N=CN(C4=O)C [AZ628] + C[C@]1(O)C[C@@H](c2nc(-c3ccc4ccc(-c5ccccc5)nc4c3)c3c(N)nccn32)C1 [Linsitinib] (partner 1 µM)
How it was run: as §1

QS11 + Lapatinib = compound: C1CC2=C(C1)C=C(C=C2)OC3=NC(=C4C(=N3)N(C=N4)CC5=CC=C(C=C5)C6=CC=CC=C6)N[C@@H](CC7=CC=CC=C7)CO [QS11] + CS(=O)(=O)CCNCc1ccc(-c2ccc3ncnc(Nc4ccc(OCc5cccc(F)c5)c(Cl)c4)c3c2)o1 [Lapatinib] (partner 2 µM)
How it was run: as §1

Row | Cell Line | relative viability (AZ628 + Bortezomib; first compound 0.08 µM) | relative viability (AZ628 + Bortezomib; first compound 0.253 µM) | relative viability (AZ628 + Bortezomib; first compound 0.8 µM) | relative viability (AZ628 + Bortezomib; first compound 2.53 µM) | relative viability (AZ628 + Bortezomib; first compound 8 µM) | relative viability (QS11 + Navitoclax; first compound 0.08 µM) | relative viability (QS11 + Navitoclax; first compound 0.253 µM) | relative viability (QS11 + Navitoclax; first compound 0.8 µM) | relative viability (QS11 + Navitoclax; first compound 2.53 µM) | relative viability (QS11 + Navitoclax; first compound 8 µM) | relative viability (AZ628 + Linsitinib; first compound 0.08 µM) | relative viability (AZ628 + Linsitinib; first compound 0.253 µM) | relative viability (AZ628 + Linsitinib; first compound 0.8 µM) | relative viability (AZ628 + Linsitinib; first compound 2.53 µM) | relative viability (AZ628 + Linsitinib; first compound 8 µM) | relative viability (QS11 + Lapatinib; first compound 0.08 µM) | relative viability (QS11 + Lapatinib; first compound 0.253 µM) | relative viability (QS11 + Lapatinib; first compound 0.8 µM) | relative viability (QS11 + Lapatinib; first compound 2.53 µM) | relative viability (QS11 + Lapatinib; first compound 8 µM)
1 | NCI-H2087 | 0.831 | 0.738 | 0.783 | 0.775 | 0.399 | 1.05 | 1.02 | 0.733 | 0.931 | 0.785 | 0.818 | 0.613 | 0.728 | 0.65 | 0.343 | 0.996 | 1.09 | 0.728 | 0.651 | 0.688
2 | NCI-H2126 | 1.16 | 1 | 1.13 | 1.17 | 1.18 | 0.867 | 0.796 | 0.67 | 0.823 | 0.62 | 0.762 | 0.746 | 0.776 | 0.721 | 0.664 | 0.792 | 0.698 | 0.727 | 0.802 | 0.717
3 | NCI-H2228 | 0.936 | 1.03 | 0.909 | 0.963 | 0.929 | 0.852 | 1.1 | 0.483 | 0.756 | 1.29 | 0.504 | 0.686 | 0.622 | 1.1 | 0.517 | 1.12 | 0.826 | 1.17 | 1.54 | 1.09
4 | NCI-H2347 | 0.859 | 0.962 | 0.721 | 0.828 | 0.623 | 0.598 | 0.826 | 0.716 | 0.743 | 0.839 | 0.719 | 0.928 | 0.741 | 0.792 | 0.639 | 0.867 | 0.93 | 0.795 | 0.859 | 1.02
5 | NCI-H2405 | 0.756 | 0.864 | 0.548 | 0.68 | 1.09 | 0.778 | 0.757 | 0.901 | 0.894 | 0.768 | 0.463 | 0.646 | 0.477 | 0.387 | 0.409 | 0.951 | 1.02 | 1.02 | 1.29 | 1.07
6 | NCI-H3122 | 0.987 | 0.887 | 0.723 | 0.696 | 0.444 | 1.01 | 1.06 | 0.698 | 1.06 | 0.817 | 0.931 | 0.83 | 0.686 | 0.701 | 0.388 | 1.03 | 1.14 | 0.71 | 1.16 | 0.824
7 | PC-3 [JPC-3] | 0.778 | 0.924 | 0.9 | 0.801 | 0.857 | 0.738 | 0.884 | 0.771 | 0.84 | 0.938 | 0.893 | 0.971 | 1.01 | 1.04 | 0.952 | 0.464 | 0.409 | 0.436 | 0.5 | 0.435
8 | PC-14 | 0.815 | 0.746 | 0.942 | 1.08 | 0.604 | 1.1 | 1.02 | 0.95 | 1.03 | 0.921 | 0.946 | 0.862 | 0.946 | 0.981 | 0.703 | 0.277 | 0.315 | 0.257 | 0.249 | 0.329
9 | RERF-LC-KJ | 1.22 | 1.14 | 1.29 | 1.12 | 1.03 | 0.996 | 1.31 | 0.98 | 0.896 | 0.725 | 0.799 | 0.874 | 0.841 | 0.855 | 0.7 | 0.588 | 0.877 | 0.577 | 0.77 | 0.882
10 | SK-LU-1 | 1.1 | 1.05 | 1.17 | 0.854 | 1.04 | 0.795 | 0.871 | 0.646 | 0.487 | 0.479 | 0.728 | 1 | 0.907 | 1.07 | 0.901 | 0.704 | 0.868 | 0.963 | 0.803 | 0.838
11 | SW 1573 | 0.952 | 0.911 | 0.886 | 0.946 | 0.621 | 0.937 | 0.795 | 0.9 | 0.842 | 0.564 | 0.599 | 0.725 | 0.661 | 0.632 | 0.412 | 1.02 | 1.14 | 1.1 | 1.05 | 1.2
12 | UMC-11 | 0.935 | 0.571 | 0.694 | 0.739 | 0.666 | 0.293 | 0.308 | 0.298 | 0.424 | 0.54 | 1.02 | 1.12 | 1.03 | 0.976 | 1.02 | 0.873 | 0.984 | 0.874 | 1.16 | 1.33
